This is an account of results in doi:10.1101/2025.05.29.656781v1 (biorxiv, 2025).

Changes are numbered by the printed parent chain.

Assay [1] has as its target T1, KV4.3/KChIP3 (Homo sapiens, UniProt Q9Y2W7, Y130A).
T1 sequence (Q9Y2W7 1-256 Y130A): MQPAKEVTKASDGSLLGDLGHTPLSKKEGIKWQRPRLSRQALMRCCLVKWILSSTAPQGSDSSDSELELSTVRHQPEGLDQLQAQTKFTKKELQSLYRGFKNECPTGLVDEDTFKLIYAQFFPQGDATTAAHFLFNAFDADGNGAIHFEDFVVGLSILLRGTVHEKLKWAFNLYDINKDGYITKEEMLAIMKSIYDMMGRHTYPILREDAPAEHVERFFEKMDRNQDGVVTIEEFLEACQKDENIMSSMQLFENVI
T1 sequence (Q9UK17 1-655 partner): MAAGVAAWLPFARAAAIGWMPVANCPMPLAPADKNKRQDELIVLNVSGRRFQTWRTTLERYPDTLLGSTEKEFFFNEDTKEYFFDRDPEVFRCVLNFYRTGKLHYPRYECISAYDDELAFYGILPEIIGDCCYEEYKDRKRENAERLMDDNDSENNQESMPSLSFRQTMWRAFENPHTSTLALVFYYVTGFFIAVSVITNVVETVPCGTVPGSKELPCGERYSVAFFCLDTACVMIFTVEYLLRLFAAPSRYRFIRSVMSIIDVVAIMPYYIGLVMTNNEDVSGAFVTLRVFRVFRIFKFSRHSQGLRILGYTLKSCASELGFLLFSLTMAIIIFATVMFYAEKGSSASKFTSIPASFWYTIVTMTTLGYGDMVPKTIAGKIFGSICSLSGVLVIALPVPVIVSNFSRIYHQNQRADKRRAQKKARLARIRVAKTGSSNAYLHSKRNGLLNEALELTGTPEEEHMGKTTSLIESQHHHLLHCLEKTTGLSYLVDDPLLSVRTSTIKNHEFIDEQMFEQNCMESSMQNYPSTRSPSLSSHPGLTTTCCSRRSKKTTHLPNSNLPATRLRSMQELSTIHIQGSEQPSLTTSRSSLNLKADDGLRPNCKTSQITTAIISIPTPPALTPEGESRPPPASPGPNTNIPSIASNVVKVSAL
Briefly: whole-cell patch clamp, per cent block. Particulars: read-out: % inhibition at 30 nM. It is filed as cell-based. (The patch-clamp technique gives a direct electrical read-out from membranes.)

The target in assay [2] is T2, KV4.3/KChIP3 (Homo sapiens, UniProt Q9Y2W7).
T2 sequence (Q9Y2W7 1-256): T1 sequence (Q9Y2W7 1-256 Y130A) with A130Y
T2 sequence (Q9UK17 1-655 partner): T1 sequence (Q9UK17 1-655 partner)
Nature of the assay: whole-cell patch clamp, per cent block. The settings on record: read-out: % inhibition at 30 nM. Format: cell-based.

In assay [3] the target is T3, KV4.3/KChIP3 (Homo sapiens, UniProt Q9Y2W7, K166A).
T3 sequence (Q9Y2W7 1-256 K166A): T1 sequence (Q9Y2W7 1-256 Y130A) with A130Y, K166A
T3 sequence (Q9UK17 1-655 partner): T1 sequence (Q9UK17 1-655 partner)
Briefly: whole-cell patch clamp, per cent block. Particulars: read-out: % inhibition at 30 nM. Format: cell-based.

In assay [4] the target is T4, KV4.3/KChIP3 (Homo sapiens, UniProt Q9Y2W7, Y118A).
T4 sequence (Q9Y2W7 1-256 Y118A): T1 sequence (Q9Y2W7 1-256 Y130A) with Y118A, A130Y
T4 sequence (Q9UK17 1-655 partner): T1 sequence (Q9UK17 1-655 partner)
Nature of the assay: whole-cell patch clamp, per cent block. Format: cell-based. Particulars: read-out: % inhibition at 30 nM.

In the next assay the target is T5, KChIP3 (Homo sapiens, UniProt Q9Y2W7).
T5 sequence (Q9Y2W7 1-256): T1 sequence (Q9Y2W7 1-256 Y130A) with A130Y
Briefly: tryptophan fluorescence quenching. It is filed as binding.

For assay [5], the target named is T2, KV4.3/KChIP3. Briefly: whole-cell patch clamp, peak current at +[…] mV. Format: cell-based.

Turning to `O=C(Cc1cccc(-c2ccccc2)c1)Nc1cc(Cl)ccc1C(=O)O` [compound 1, 2-(2-([1,1’-biphenyl]-3-yl)acetamido)-4-chlorobenzoic acid], the inhibition at 0.03 µM on KV4.3/KChIP3 [1] was 9.7 ± 2.5%; on KV4.3/KChIP3 [2], 23.2 ± 2.7%; at KV4.3/KChIP3 [3], 9 ± 2.5%; on KV4.3/KChIP3 [4] it was 17 ± 3.6%. On KChIP3, this compound displayed a Kd of 230 ± 20 nM. This compound gave an IC50 against KV4.3/KChIP3 [5] of 30 nM.

In general, inhibition refers to the share of the control response that was lost under treatment. As a reminder, the Kd is the free concentration of one partner at which half of the binding sites on the other are occupied at equilibrium, for simple one-to-one binding. The low end stands for higher affinity, the high end for lower affinity. What is called IC50 is the point on the concentration scale where inhibition reaches its midpoint. High values mean weaker potency, low ones greater potency.
